This is an account of results in patent US20120309717A1, “COMPOUNDS, METHODS AND PHARMACEUTICAL COMPOSITIONS FOR INHIBITING PARP” (EISAI INC., priority 2003, published 2012).

The test system of one data set is endotoxic shock. The note with it: cited from earlier work.
The next data set concerns colitis. As to conditions: rats; cited from earlier work.
The test system of data set [1] is ischemia and reperfusion of the heart. As to conditions: single injection 10 mg/kg, one minute before occlusion or before reperfusion; cited from earlier work.
The test system of data set [2] is human fibroblast cells lines (W138 or BJ cells). In words: proliferative capacity and lifespan of human fibroblast cells. Format: cell-based. As for the experimental part:
At the time of subdivision, the media is aspirated, and the cells rinsed with phosphate buffer saline (PBS) and then trypsinized. The cells are counted with a Coulter counter and plated at a density of 10^5 cells per cm^2 in 6-well tissue culture plates in DMEM/199 medium supplemented with 10% bovine calf serum and varying amounts (0.10 μM, and 1 mM: from a 100× stock solution in DMEM/M199 medium) of a PARP inhibitor. This process is repeated every 7 days until the cells appear to stop dividing. The untreated (control) cells reach senescence and stop dividing after about 40 days in culture. […] The cells treated with 1 mM 3-AB will still divide after 60 days in culture.

Data set [3] has as its system SJGBM2 human glioblastoma multiforme. In words: orthotopic human glioblastoma multiforme xenograft in nude mice. Format: in vivo, mouse. As to conditions: with respect to controls or single agents. As for the experimental part:
(§1) The intracranial transplantation procedure was performed as previously described (Tentori 2002b). Cells (10^4 in 0.03 ml of RPMI-1640) were injected intra-cranially (ic) through the center-middle area of the frontal bone to a 2 mm depth, using a 0.1 ml glass microsyringe and a 27-gauge disposable needle.
(§2) Murine melanoma B16 or lymphoma L5178Y cells (10^4) were injected ic into male B6D2F1 (C57BL/6×DBA/2) mice. Human glioblastoma multiforme SJGBM2 cells (10^6) were injected ic into male athymic BALB/c mice (nu/nu genotype). Before tumor challenge, animals were anesthetized with ketamine (100 mg/kg) and xylazine (5 mg/kg) in 0.9% NaCl solution (10 ml/kg/ip).
(§3) Mice were monitored for mortality for 90 days. Median survival times (MST) were determined and the percentage of increase in lifespan (ILS) was calculated as: {[MST (days) of treated mice/MST (days) of control mice]−1}×100. Efficacy of treatments was evaluated by comparing survival curves between treated and control groups.
(§4) To assess the ability of different treatments to reduce tumor growth, histological examination of the brains was performed using additional animals that were not considered for the analysis of survival. Mice were sacrificed at different time points after tumor challenge, selected within the MST range of untreated tumor-bearing animals.
In general terms: In xenograft studies the graft and the host belong to different species.

Data set [4] concerns B16 melanoma. As to the kind of experiment: B16 melanoma growing at the CNS site (intracranial). The data set is classed as in vivo, mouse. As for the experimental part: as §1, §2, §3, §4
The nature of data set [5]: drug toxicity / maximal tolerated dose in intact mice. As to conditions: TMZ ip + 43 iv, for 3 days.
Protocol: Drug toxicity was evaluated by treating intact mice (5/group) with the compounds under study, used as single agents or in combination. Control groups were treated with vehicles only. Body weight was measured three times weekly and survivals were recorded for 3 weeks after the last treatment. Toxicity was assessed on the basis of apparent drug-related deaths and net body weight loss [i.e., (initial weight−lowest weight/initial weight)×100%]. Death was considered drug-related when occurring within 7 days after the last treatment.
43 was dissolved in 70 mM PBS without potassium, and injected intravenously (iv) at different doses (40-200 mg/kg) to establish the maximal tolerated dose.
TMZ was dissolved in dimethyl-sulfoxide (40 mg/ml), diluted in saline (5 mg/ml) and administered ip at doses commonly used for in vivo preclinical studies (Friedman 1995; Middleton 2000; Kokkinakis 2001). Experiments were performed using different doses and schedules of TMZ+43 to determine the maximal tolerated dose of the drug combination. 43 was administered 15 min before TMZ administration. Control mice were always injected with drug vehicles.
The nature of data set [6]: crossing of the blood-brain barrier. Format: in vivo. As to conditions: systemic administration.
In data set [7] the test system is regional heart ischemia reperfusion. As to the kind of experiment: regional heart ischemia reperfusion model (LAD occlusion). As to conditions: iv bolus pre-ischemia plus iv bolus post-ischemia, 10 to 40 mg/kg; 30 min LAD occlusion, 2 hr reperfusion; male SD rats. Format: in vivo, rat. The protocol: In the present study, we investigated the effects of 43 in the regional heart ischemia reperfusion model. In regional heart ischemia model, sodium thiopental-anaesthetized male SD rats were subjected to occlusion of LAD coronary artery for 30 min followed by 2 hr of reperfusion. The infarct size was quantified by TTC staining method and expressed as percent of area at risk.
The left anterior descending coronary artery of Sprague-Dawley rats was occluded for 30 minutes. This was followed by 90-120 minutes of blood reflow. PARP inhibitor compounds were given intraperitoneally (ip), 60 minutes pre-, or intravenously (iv), 15 or 5 minutes pre- and 25 minutes post-onset of ischemia. Infarct size was determined by TTC staining and the risk area was determined via blue dye injection.

Data set [8] deals with lymphoma cell line L5178Y. In words: colony-formation assay, L5178Y. The data set is classed as cell-based, murine. The protocol: (§5) The murine melanoma cell line B16 of C57BL/6J (H-2^b/H-2^b) origin and the lymphoma cell line L5178Y of DBA/2 (H-2^d/H-2^d) origin (ATCC, Manassas, Va.) were cultured in RPMI-1640 containing 10% fetal calf serum (Invitrogen, Milan, Italy), 2 mM L-glutamine, 100 units/ml penicillin and 100 μg/ml streptomycin (Flow Laboratories, Mc Lean, Va.), at 37° C. in a 5% CO2 humidified atmosphere. The human glioblastoma multiforme cell line SJGBM2 was cultured in DMEM (Invitrogen) supplemented with 10% fetal calf serum, 2 mM L-glutamine and antibiotics. SJGBM2 cell line was a kind gift from Dr. Peter J. Houghton (St. Jude Children's Research Hospital, Memphis, Tenn., USA).
(§6) […] For the experiments aimed at assessing the enhancing effect of 43 on TMZ-induced tumor growth inhibition, the methylating agent was added to cell cultures 15 min after 43 was used at concentrations non-toxic, and capable of abrogating PARP activity.
(§7) Long-term survival was analyzed by colony-formation assay. Exponentially growing melanoma and glioblastoma cells were seeded into 6-well plates at a density of 2×10^2/well and left to attach for 18 h; cells were then treated with the compounds under study and cultured to allow colony formation. After 10 days, colonies (defined as a cluster of >50 cells) were fixed and stained with rhodamine B basic violet 10 (ICN Biomedicals Inc., Aurora, Ohio, USA). Untreated or treated lymphoma cells were seeded at 1 cell/well in 96-well plates (flat-bottomed) and cultured. After 10 days, colonies were counted to determine cloning efficiency, using an optical microscope (Tentori 2001b).
(§8) Cell line chemosensitivity to TMZ, 43 or to the drug combination was evaluated in terms of IC50, i.e. the concentration of the drug expressed in μM, capable of inhibiting colony-forming ability by 50%. The IC50 was calculated on the regression line in which the number of colonies was plotted vs the drug concentration.

In data set [9] the test system is B16 melanoma. As to the kind of experiment: B16 melanoma growing subcutaneously in B6D2F1 mice. Format: in vivo, mouse. The note with it: 3 days. As for the experimental part:
43 was administered 15 min before TMZ administration. Control mice were always injected with drug vehicles.
The efficacy of TMZ±43 treatment was also evaluated on melanoma growing subcutaneously (sc). For this purpose B16 cells (2.5×10^5) were inoculated sc in the flank of the animal. Tumors were measured with calipers and volume calculated according to the formula: [(width)^2×length]/2. Treatment was started 6 days after challenge, when the volume of tumor nodules reached 100-150 mm^3. Melanoma growth was monitored, by measuring tumor nodules every 3 days for 3 weeks.

In data set [10] the test system is human glioblastoma multiforme cell line SJGBM2. As to the kind of experiment: colony-formation assay, SJGBM2. The data set is classed as cell-based. As for the experimental part: as §5
Cells were treated with 43 (0.1-20 μM) or with TMZ (1-250 μM). For the experiments aimed at assessing the enhancing effect of 43 on TMZ-induced tumor growth inhibition, the methylating agent was added to cell cultures 15 min after 43 was used at concentrations non-toxic, and capable of abrogating PARP activity.
as §7, §8

In data set [11] the test system is murine melanoma cell line B16. As to the kind of experiment: colony-formation assay, B16. The data set is classed as cell-based. The protocol: as §5, §6, §7, §8

The inhibition is the drop in the measured response relative to a control, in per cent.

`NC(=O)c1cccnc1` [nicotinamide]: the “protection against vascular failure” value in the data set on endotoxic shock is “protects against delayed, NO-mediated vascular failure”.

On to `NC(=O)c1cccc(N)c1` [3-amino-benzamide], for which the “inflammatory response, distal colon” value in the data set with colitis is on record as “reduced the inflammatory response”. The “reduction in infarct size in the heart” value in data set [1] was 32-42%. In addition, the “effect on lifespan of the cells” value in data set [2] (10 μM) is reported as “little or no effect”; in [2] (100 μM) it was “lengthen the lifespan of the cells”. Further, in data set [2] (1 mM), the “effect on lifespan and proliferative capacity of the cells” value was “dramatically increases the lifespan and proliferative capacity”. Further, the “time in culture at which cells still divide” value in data set [2] (1 mM, untreated cells stop after about 40 days) is on record as greater than 60 days.

Regarding `Cn1nnc2c(C(N)=O)ncn2c1=O` [TMZ, temozolimide], in data set [3], the “survival of tumor bearing mice” value was “completely ineffective”. Also, the “tumor infiltration in the brain (histology)” value with B16 melanoma [4] is listed as “limited but multifocal infiltration”. Further, in data set [5], the “highest tolerable dose of the drug combination” value is 100 mg/kg/day.

With `CN1CCN(Cc2ccc3c(c2)-c2n[nH]c(=O)c4cccc(c24)O3)CC1` [Compound 43, 10-(4-Methyl-piperazin-1-ylmethyl)-2H-7-oxa-1,2-diaza-benzo[de]anthracen-3-one], the blood-brain barrier crossing result in data set [6] is “capable of crossing the blood-brain barrier”. Moreover, the “cardiac protection (infarct size)” value in data set [7] is listed as “significant cardiac protection”. The “intrinsic growth inhibition as single agent” value is listed as “some intrinsic growth inhibition” in [8] (1-25 μM 43, L5178Y); “some intrinsic growth inhibition” in data set [10] (1-25 μM 43, SJGBM2); “some intrinsic growth inhibition” in [11] (1-25 μM 43, B16). Besides, the “maximal increase of TMZ growth inhibitory effect” value in data set [8] (L5178Y, 1.2 μM 43) was roughly 10 fold; in [10] (SJGBM2, 1.2 μM 43), roughly 4 fold. The “intrinsic growth inhibitory effect” value is recorded as “intrinsic growth inhibitory effect” in data set [8] (L5178Y, 2.5 μM 43) and “intrinsic growth inhibitory effect” in data set [10] (SJGBM2, 2.5 μM 43). Moreover, in the data set on B16 melanoma [9] (43 40 mg/kg/day iv, single agent), the “tumor growth, 43 only” value was “did not affect tumor growth”. The “enhancement of the antitumor effects of TMZ” value with B16 melanoma [9] (TMZ 100 mg/kg/day ip + 43 40 mg/kg/day iv, P <0.0001) is “significantly enhanced”. The “tumor infiltration in the brain (histology)” value in the data set with B16 melanoma [4] is “pronounced and diffuse tumor infiltration”. In addition, the “maximal enhancement of TMZ-induced growth inhibition” value in data set [11] (B16, 0.6 μM 43) is 10 fold. For the same molecule, in data set [11] (B16, 43 as single agent), the “susceptibility to antiproliferative effect with respect to SJGBM2 and L5178Y” value is “more susceptible”. For the same molecule, the inhibition at 1.2 µM in [11] (Mus musculus, B16, 43 at 1.2 μM, read-out: growth inhibition with respect to control) came to 18 ± 3%.
